The values below come from BindingDB's records for doi:10.1021/acsmedchemlett.7b00249 (Vanderbilt University School of Medicine, 2017).

The target of this test is Metabotropic glutamate receptor 5 (Rattus norvegicus, UniProt P31424). The experiment in a line: Positive allosteric modulation of rat mGlu5 receptor expressed in HEK293A cells assessed as increase in glutamate induced-calcium mobilization preincubated for 2.3 mins followed by glutamate addition measured for 1.9 mins by Fluo-4 AM dye based fluorescence assay. For orientation: Calcium assays in cells follow changes in intracellular calcium, usually with a dye or a luminescent sensor.
Sequence of Metabotropic glutamate receptor 5 (P31424 whole entry): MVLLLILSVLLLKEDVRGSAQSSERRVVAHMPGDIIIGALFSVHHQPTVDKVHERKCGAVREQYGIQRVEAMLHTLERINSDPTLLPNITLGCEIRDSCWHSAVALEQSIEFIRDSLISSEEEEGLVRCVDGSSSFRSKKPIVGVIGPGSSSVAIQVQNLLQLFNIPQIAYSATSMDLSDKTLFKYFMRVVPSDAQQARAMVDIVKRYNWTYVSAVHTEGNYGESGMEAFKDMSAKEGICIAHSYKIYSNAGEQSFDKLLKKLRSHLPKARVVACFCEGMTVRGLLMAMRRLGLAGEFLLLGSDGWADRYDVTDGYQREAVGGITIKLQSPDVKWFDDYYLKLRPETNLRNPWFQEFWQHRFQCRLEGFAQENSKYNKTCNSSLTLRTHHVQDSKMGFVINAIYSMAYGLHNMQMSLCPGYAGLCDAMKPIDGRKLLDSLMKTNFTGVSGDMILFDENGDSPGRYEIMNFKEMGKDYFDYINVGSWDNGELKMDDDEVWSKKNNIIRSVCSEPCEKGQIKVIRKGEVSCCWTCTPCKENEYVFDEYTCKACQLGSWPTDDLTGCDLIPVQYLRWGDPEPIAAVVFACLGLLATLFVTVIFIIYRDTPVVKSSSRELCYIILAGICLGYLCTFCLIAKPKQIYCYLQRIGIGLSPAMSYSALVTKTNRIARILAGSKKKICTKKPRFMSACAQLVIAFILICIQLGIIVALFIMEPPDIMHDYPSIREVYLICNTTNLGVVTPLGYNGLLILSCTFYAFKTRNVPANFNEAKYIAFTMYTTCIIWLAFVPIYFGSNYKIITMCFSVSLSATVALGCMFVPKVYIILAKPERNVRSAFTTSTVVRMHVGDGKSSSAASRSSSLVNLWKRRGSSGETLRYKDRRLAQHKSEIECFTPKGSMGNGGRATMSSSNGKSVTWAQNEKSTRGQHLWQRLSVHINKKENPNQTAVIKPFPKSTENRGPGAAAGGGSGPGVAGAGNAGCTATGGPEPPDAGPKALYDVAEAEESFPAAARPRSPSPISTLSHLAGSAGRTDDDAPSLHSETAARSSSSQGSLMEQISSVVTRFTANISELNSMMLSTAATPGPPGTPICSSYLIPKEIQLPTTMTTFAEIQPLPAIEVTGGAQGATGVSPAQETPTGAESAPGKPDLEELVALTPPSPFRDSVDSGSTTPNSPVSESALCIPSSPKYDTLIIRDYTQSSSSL

In general, EC50 refers to the midpoint of the concentration-response curve.

On to `O=c1nc(OCCOc2ccccc2)ccn1-c1ccc(F)c(F)c1`, for which the EC50 came to 398 nM.
